Where “and” joins values, the source holds several entries; their conditions need not be identical. Equal values may be shown once. Read-outs that look alike come from different tables or passages of the source. One block for each compound: values may come before it. Peptide text beside a SMILES is read from it.
Key:
[1] = parameters: method as in number not printed ("the literature reports"); conditions: mice; ref number not printed ("the literature reports"); cited from earlier work
Glu-induced HT-22 cells = test: Neuroprotection in Glu-injured HT-22 cells (CCK-8 cell viability); conditions: for cell viability in Glu-injured HT-22 cells: 50 μM (stated for cyclo(Hyp-Ala)), 4 h pretreatment, then 20 mM Glu 24 h, model group 40.759 ± 1.939%; for Cell viability(%) in Glu-induced HT-22 cells: Glu-only model (0 μM) 40.759±1.939
[2] = Serum pharmacokinetics of CDPs after oral administration of DHG (targeted LC-MS, noncompartmental analysis); conditions: for C max / AUC0–24h / T max: serum, mice
H2O2-induced HT-22 cells = test: Neuroprotection in H2O2-injured HT-22 cells (CCK-8 cell viability); conditions: for Cell viability(%) in H2O2-induced HT-22 cells: compound 50 μM, H2O2-only model (0 μM) 48.645±0.347
[3] = Concentrations of CDPs in stomach, small intestine and cecum contents after oral DHG (targeted spatiotemporal metabolomics); assay type: in vivo, C57 mice
Description: The supernatant was dried using N2.
For gastrointestinal content analysis, freeze-dried powders (1 mg each) of stomach, small intestine, and cecum contents collected over the 0–24 h postadministration period were accurately weighed. The samples were extracted using the same pretreatment procedure as applied for DHG, namely, ultrasonication with 75% methanol for 30 min at room temperature, followed by centrifugation (13,500 rpm, 10 min). The supernatants were collected, dried under nitrogen, and reconstituted in 75% methanol for LC–MS analysis. Quantitation was performed against the 12-point calibration curves established above, ensuring consistency with the DHG quantitation workflow. Samples from different time points were analyzed individually to characterize the temporal distribution of CDPs within each gastrointestinal compartment.

[4] = parameters: method as in number not printed ("It was reported"); conditions: linear dipeptide; ref number not printed ("It was reported"); cited from earlier work
[5] = parameters: method as in number not printed ("A study in humans"); conditions: humans; ref number not printed ("A study in humans"); cited from earlier work
[6] = FBMN analysis of short peptides in small intestine contents and serum after oral DHG; conditions: serum, time points 0.5-4 h after oral DHG
[7] = mouse, in vivo, po, 1000 mg/kg
[8] = mouse, in vivo, po
HT-22 cells = conditions: 20 mM Glu, 24 h
Description: HT-22 cells were cultured in DMEM medium with 10% fetal bovine serum (Gibco), 1% penicillin, and streptomycin (Gibco) at 37 °C. HT-22 cells were seeded at a density of 1 × 10^4 cells per well in 96-well plates and cultured in DMEM medium containing 10% fetal bovine serum and 1% penicillin–streptomycin at 37 °C with 5% CO2.

Compound: O=C(O)[C@@H]1C[C@@H](O)CN1C(=O)[C@@H]1CCCN1 [Pro-Hyp] (HELM PEPTIDE1{P.[Hyp]}$$$$V2.0)
time to drop to basal levels [1]: ≤ 3 h

Compound: O=C1NCC(=O)N2CC(O)CC12 (stereo not drawn) [cyclo(Hyp-Gly), cyclo(Gly-Hyp)]
cell viability in Glu-injured HT-22 cells (Glu-induced HT-22 cells): 63.703 ± 1.518 % cell viability
Cell viability(%) in Glu-induced HT-22 cells (Glu-induced HT-22 cells; compound 25 μM): 61.970±4.223%
Cell viability(%) in Glu-induced HT-22 cells (Glu-induced HT-22 cells; compound 50 μM): 53.703±1.518%
C max ([2]; oral DHG): 684 ng/mL
AUC0–24h ([2]; oral DHG 1000 mg/kg): 7371.695 ng·h/mL and 7371.6951 ng·h/mL
C max ([2]; oral DHG 1000 mg/kg): 683.7471 ng/mL
T max ([2]; oral DHG 1000 mg/kg): 120 min
Cell viability(%) in H2O2-induced HT-22 cells (H2O2-induced HT-22 cells): 62.961±1.166%
concentration in the cecum ([3]; cecum contents at 8 h): 358.966 ng/g
cecum concentration at 8 h compared with peak levels in stomach and small intestine [3]: surpassed the peak levels observed in the stomach and small intestine
concentration in the small intestine ([3]; small intestine contents at 1 h): 354.578 ng/g
concentration in the stomach ([3]; stomach contents at 0.5 h): 265.229 ng/g

Compound: NCC(=O)N1CCC[C@H]1C(=O)O [Gly-Pro] (H-Gly-Pro-OH)
time to decrease to a negligible level after oral administration [4]: ≤ 1 h
T max, C max, and AUC0–4h compared with cyclo(Gly-Pro) [5]: lower

Compound: CC(C)CC1NC(=O)C2CC(O)CN2C1=O (stereo not drawn) [cyclo(Hyp-Leu)]
Cell viability(%) in Glu-induced HT-22 cells (Glu-induced HT-22 cells; compound 25 μM): 53.193±5.729%
Cell viability(%) in Glu-induced HT-22 cells (Glu-induced HT-22 cells; compound 50 μM): 53.590±3.417%
AUC0–24h ([2]; oral DHG 1000 mg/kg): 301.1580 ng·h/mL
C max ([2]; oral DHG 1000 mg/kg): 110.4803 ng/mL
T max ([2]; oral DHG 1000 mg/kg): 30 min
Cell viability(%) in H2O2-induced HT-22 cells (H2O2-induced HT-22 cells): 60.867±9.188%
time detected in serum (FBMN) [6]: 0.5 to 4 h

Compound: O=C1N[C@@H](Cc2ccccc2)C(=O)N2C[C@@H](O)C[C@@H]12 [cyclo(Phe-Hyp)]
cell viability in Glu-injured HT-22 cells (Glu-induced HT-22 cells): 60.206 ± 4.409 % cell viability
Cell viability(%) in Glu-induced HT-22 cells (Glu-induced HT-22 cells; compound 25 μM): 56.084±2.124%
AUC0–24h ([2]; oral DHG 1000 mg/kg): 263.2271 ng·h/mL
C max ([2]; oral DHG 1000 mg/kg): 51.2931 ng/mL
T max ([2]; oral DHG 1000 mg/kg): 60 min
Cell viability(%) in H2O2-induced HT-22 cells (H2O2-induced HT-22 cells): 63.241±3.395%
time detected in serum (FBMN) [6]: 0.5 to 4 h
cecum concentration at 8 h compared with peak levels in stomach and small intestine [3]: surpassed the peak levels observed in the stomach and small intestine

Compound: N[C@@H](CCC(=O)O)C(=O)O [Glu, Glutamate]
HT22 cell viability after Glu exposure (HT-22 cells): 40–60%

Compound: CC1NC(=O)C2CC(O)CN2C1=O (stereo not drawn) [cyclo(Hyp-Ala)]
cell viability in Glu-injured HT-22 cells (Glu-induced HT-22 cells): 70.614 ± 4.85 % cell viability
Cell viability(%) in Glu-induced HT-22 cells (Glu-induced HT-22 cells; compound 25 μM): 54.245±1.226%
AUC0–24h ([2]; oral DHG 1000 mg/kg): 2561.8131 ng·h/mL
C max ([2]; oral DHG 1000 mg/kg): 400.1572 ng/mL
T max ([2]; oral DHG 1000 mg/kg): 60 min
cell viability in H2O2-injured HT-22 cells (H2O2-induced HT-22 cells; 50 μM, 4 h pretreatment, then 400 μM H2O2 24 h): 68.515 ± 2.290%

Continued, in another order:

AUC0–24h ([2]; oral DHG 1000 mg/kg): 176.6962 ng·h/mL
C max ([2]; oral DHG 1000 mg/kg): 81.2502 ng/mL
T max ([2]; oral DHG 1000 mg/kg): 30 min
time detected in serum (FBMN) [6]: 0.5 to 4 h
Compound: CC(C)CC1NC(=O)C2CCCN2C1=O (stereo not drawn) [cyclo(Pro-Leu)]
Cell viability(%) in Glu-induced HT-22 cells (Glu-induced HT-22 cells; compound 25 μM): 52.208±0.555%
Cell viability(%) in Glu-induced HT-22 cells (Glu-induced HT-22 cells; compound 50 μM): 55.781±2.676%
Cell viability(%) in H2O2-induced HT-22 cells (H2O2-induced HT-22 cells): 57.413±6.700%

AUC0–24h ([2]; oral DHG 1000 mg/kg): 201.4294 ng·h/mL
C max ([2]; oral DHG 1000 mg/kg): 78.4401 ng/mL
T max ([2]; oral DHG 1000 mg/kg): 30 min
time detected in serum (FBMN) [6]: 0.5 to 4 h
Compound: CC(C)[C@@H]1NC(=O)[C@@H]2CCCN2C1=O [cyclo(Pro-Val)]
Cell viability(%) in Glu-induced HT-22 cells (Glu-induced HT-22 cells; compound 25 μM): 57.390±2.314%
Cell viability(%) in Glu-induced HT-22 cells (Glu-induced HT-22 cells; compound 50 μM): 58.518±3.306%
Cell viability(%) in H2O2-induced HT-22 cells (H2O2-induced HT-22 cells): 60.019±9.124%

AUC0–24h [7]: 19.8164 ng·h/mL
C max [7]: 11.0670 ng/mL
T max [7]: 30 min
Peptide signal (feature intensity) in the small intestine, 30 min [8]: 2.06E+05
Peptide signal (feature intensity) in the small intestine, 60 min [8]: 0.00E+00
Peptide signal (feature intensity) in the small intestine, 120 min [8]: 2.49E+05
Peptide signal (feature intensity) in the small intestine, 240 min [8]: 2.18E+05
Compound: O=C1N[C@@H](Cc2ccccc2)C(=O)N2CCC[C@@H]12 [cyclo(Pro-Phe)]

AUC0–24h ([2]; oral DHG 1000 mg/kg): 2126.6252 ng·h/mL
C max ([2]; oral DHG 1000 mg/kg): 408.1371 ng/mL
T max ([2]; oral DHG 1000 mg/kg): 60 min
time remained detectable in serum ([2]; serum/blood after oral DHG, sampled to 24 h): 24 h
Compound: O=C1[C@@H]2C[C@@H](O)CN2C(=O)[C@@H]2CCCN12 [cyclo(Pro-Hyp)]
cell viability in Glu-injured HT-22 cells (Glu-induced HT-22 cells): 60.071 ± 3.101 % cell viability
Cell viability(%) in Glu-induced HT-22 cells (Glu-induced HT-22 cells; compound 25 μM): 53.105±7.712%
Cell viability(%) in H2O2-induced HT-22 cells (H2O2-induced HT-22 cells): 67.606±2.468%
cecum concentration at 8 h compared with peak levels in stomach and small intestine [3]: surpassed the peak levels observed in the stomach and small intestine

AUC0–24h ([2]; oral DHG 1000 mg/kg): 13.9981 ng·h/mL
C max ([2]; oral DHG 1000 mg/kg): 1.9830 ng/mL
T max ([2]; oral DHG 1000 mg/kg): 30 min
Compound: O=C1N[C@@H](Cc2cnc[nH]2)C(=O)N2CCC[C@@H]12 [cyclo(Pro-His), cyclo(His-Pro)]
Cell viability(%) in Glu-induced HT-22 cells (Glu-induced HT-22 cells; compound 25 μM): 52.701±4.050%
Cell viability(%) in Glu-induced HT-22 cells (Glu-induced HT-22 cells; compound 50 μM): 55.361±5.121%
Cell viability(%) in H2O2-induced HT-22 cells (H2O2-induced HT-22 cells): 55.307±7689%

Reference: publication PMC12616683, “In Vivo Atlas of Neuroprotective Cyclic Dipeptides Derived from Food Gelatin Using Peptidomics and Feature-Based Molecular Networking” (Journal of Agricultural and Food Chemistry, 2025)
